Measured values published in PubChem BioAssay AID1963838 (Molecular Pharmacology Branch, DTP, NCI, 2024).
Several values for one entry are separate records, joined by “and”; a condition that tells them apart may be missing. Identical values can stand only once.

System: 855422-203-R-J1-PDC complex spheroid viability
Test: Anticancer human tumor 855422-203-R-J1-PDC patient-derived bladder carcinoma cell line growth inhibition [POLQ]
Conditions: for viability, T/C: stronger effect = lower value
Procedure: Multicellular complex tumor spheroid response to Polymerase (POL) inhibitors (novobiocin, ART-558, RP6685) in combination with a variety of drugs and investigational agents in selected tumor cell lines
The POL inhibitors (novobiocin, ART-558, and RP6685) were evaluated both individually and in combination with standard of care and investigational anticancer small molecules within a complex spheroid model of solid tumors. . Complex spheroids include a stromal component modeled by human endothelial cells (HUVEC) and fibroblasts modeled by human mesenchymal stem cells (MSCs). The concentration ranges selected for each drug and investigational agent were based upon clinically achievable concentrations if the clinical Cmax of the agent was known.
Compounds. The drugs and investigational agents: novobiocin (NSC847541), ART-558 (NSC835418), RP-6685 (NSC848927), peposertib (NSC802822), ceralasertib (NSC780249), elimusertib (NSC800525), camonsertib (NSC841442), AZD-1390 (NSC803789), olaparib (NSC753686), talazoparib (NSC767125), rucaparib (NSC756644), sotorasib (NSC818433), MRTX-1133 (NSC836407), SN-38 (NSC673596), topotecan (NSC609699), epotoside (NSC141540), doxorubicin (NSC123127), gemcitabine (NSC613327), 5-fluorouracil (NSC19893), paclitaxel (NSC125973), vemurafenib (NSC761431), MSA-2 (NSC828583), SN-011 (NSC837082), adavosertib (NSC754352), prexasertib (NSC758257), carboplatin (NSC241240) and oxaliplatin (NSC266046), were obtained from the National Cancer Institute (NCI) Developmental Therapeutics Program Chemical Repository (21). The FDA-approved anticancer drug set is available from the Developmental Therapeutics Program at https://dtp.cancer.gov/organization/dscb/obtaining/. […] The stock solutions were prepared in dimethyl sulfoxide (DMSO, Sigma-Aldrich, St. Louis, MO, cat. D2650), except for the platinum compounds which were prepared in saline (Quality Biological, Gaithersburg, MD, cat. 114-055-101), at 800-fold the tested concentration and stored at -70 degrees C prior to their use. All drugs and investigational agents were tested over a range starting from a high concentration at or near the clinical Cmax and decreasing in half-log increments. If the clinical Cmax for an agent had not been determined, the highest concentration tested was 10 microM, except for SN-38, which was tested at a high concentration of 1 microM.
Cell Culture. All cells were maintained in an incubator at 37 degrees C and 5% CO2 with 95% humidity. The PDC lines were cultured according to standard operating procedures established by the NCI PDMR (https://pdmr.cancer.gov). Table 3 of the manuscript, lists the cell lines along with the number of the three cell types plated to form the mct-spheroids and media for tumor cell growth. After thawing, all PDC lines, except 997537-175-T-J1-PDC and 415267-285-R-J2-PDC, were cultured in Matrigel-coated flasks prepared with a working solution of 1X Ham's F-12 nutrient mix, without supplementation (Thermo Fisher Scientific, cat. 11765054), 100 U/mL penicillin-streptomycin (Thermo Fisher Scientific, cat. 15140122), and 2.5% Matrigel (Corning Inc., Corning, NY, cat. 354248) for the first three passages. The two PDC lines 997537-175-T-J1-PDC and 415267-285-R-J2-PDC were cultured on uncoated flasks. The 857933-349-R-J2-PDC line was cultured in 6C/Colon 1B media containing advanced DMEM/F-12 (Thermo Fisher Scientific, cat. 12634028), 10 mM HEPES (Thermo Fisher Scientific, cat. 15630080), 1X GlutaMAX supplement (Thermo Fisher Scientific, cat. 35050061), 0.1 mg/mL primocin (InvivoGen, San Diego, CA, cat. ant-pm-2), 10% defined fetal bovine serum, heat inactivated (HyClone Laboratories Inc., Logan, UT, cat. SH30070.03HI), 50% L-WRN conditioned media (ATCC, cat. CRL-3276), 1.25 mM N-Acetyl-L-cysteine (Sigma-Aldrich, cat. A9165), 10 mM nicotinamide (Sigma-Aldrich, cat. N0636), 1X B-27 supplement (Thermo Fisher Scientific, cat. 17504044), 1X N-2 supplement (Thermo Fisher Scientific, cat. […]

[1] = curve of first compound, second compound 0.0316 µM
[2] = curve of first compound, second compound 0.1 µM
[3] = curve of first compound, second compound 0.316 µM
[4] = curve of first compound, second compound 1 µM
[5] = curve of first compound, second compound 3.16 µM
[6] = curve of first compound, second compound 10 µM
[7] = second compound 0.0316 µM, first compound 0.0316 µM
[8] = second compound 0.0316 µM, first compound 0.1 µM
[9] = second compound 0.0316 µM, first compound 0.316 µM
[10] = second compound 0.0316 µM, first compound 1 µM
[11] = second compound 0.0316 µM, first compound 3.16 µM
[12] = second compound 0.0316 µM, first compound 10 µM
[13] = second compound 0.1 µM, first compound 0.0316 µM
[14] = second compound 0.1 µM, first compound 0.1 µM
[15] = second compound 0.1 µM, first compound 0.316 µM
[16] = second compound 0.1 µM, first compound 1 µM
[17] = second compound 0.1 µM, first compound 3.16 µM
[18] = second compound 0.1 µM, first compound 10 µM
[19] = second compound 0.316 µM, first compound 0.0316 µM
[20] = second compound 0.316 µM, first compound 0.1 µM
[21] = second compound 0.316 µM, first compound 0.316 µM
[22] = second compound 0.316 µM, first compound 1 µM
[23] = second compound 0.316 µM, first compound 3.16 µM
[24] = second compound 0.316 µM, first compound 10 µM
[25] = second compound 1 µM, first compound 0.0316 µM
[26] = second compound 1 µM, first compound 0.1 µM
[27] = second compound 1 µM, first compound 0.316 µM
[28] = second compound 1 µM, first compound 1 µM
[29] = second compound 1 µM, first compound 3.16 µM
[30] = second compound 1 µM, first compound 10 µM
[31] = second compound 3.16 µM, first compound 0.0316 µM
[32] = second compound 3.16 µM, first compound 0.1 µM
[33] = second compound 3.16 µM, first compound 0.316 µM
[34] = second compound 3.16 µM, first compound 1 µM
[35] = second compound 3.16 µM, first compound 3.16 µM
[36] = second compound 3.16 µM, first compound 10 µM
[37] = second compound 10 µM, first compound 0.0316 µM
[38] = second compound 10 µM, first compound 0.1 µM
[39] = second compound 10 µM, first compound 0.316 µM
[40] = second compound 10 µM, first compound 1 µM
[41] = second compound 10 µM, first compound 3.16 µM
[42] = second compound 10 µM, first compound 10 µM
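Also: spheroids exposed to compounds for seven days before readout.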

## O=C(Nc1ccc(O)c(NS(=O)(=O)c2ccc(F)cc2)c1)c1ccc(-c2ccccc2)cc1
Compound 0.0316 µM
  viability, T/C: 106% and 92.6% and 110%
Compound 0.1 µM
  viability, T/C: 118% and 99.2% and 113%
Compound 0.316 µM
  viability, T/C: 98.8% and 110% and 113%
Compound 1 µM
  viability, T/C: 112% and 108% and 97.7%
Compound 3.16 µM
  viability, T/C: 99.4% and 106% and 92.8%
Compound 10 µM
  viability, T/C: 74% and 70.5% and 45.6%
Curve of compound
  IC50: > 10 µM and 9.08 µM

## Nc1ccc(C#CCN(C(=O)Cc2ncc(C(F)(F)F)cc2C(F)(F)F)c2ccc(F)cc2)nn1
Compound 0.0316 µM
  viability, T/C: 101% [middle of 13 runs]
Compound 0.1 µM
  viability, T/C: 104% [middle of 13 runs]
Compound 0.316 µM
  viability, T/C: 107% [middle of 13 runs]
Compound 3.16 µM
  viability, T/C: 95.7% [middle of 13 runs]
Compound 10 µM
  viability, T/C: 90.4% [middle of 13 runs]
Compound alone, run of 01/19/2024
  IC50: > 10 µM

## CC1COCCN1c1cc(-c2ccnn2C)c2ccnc(-c3ccn[nH]3)c2n1 (centres undefined) + Nc1ccc(C#CCN(C(=O)Cc2ncc(C(F)(F)F)cc2C(F)(F)F)c2ccc(F)cc2)nn1
[1]
  IC50: 0.255 µM
[2]
  IC50: 0.275 µM
[3]
  IC50: 0.253 µM
[4]
  IC50: 0.203 µM
[5]
  IC50: 0.234 µM
[6]
  IC50: 0.202 µM
[7]
  viability, T/C: 124%
[8]
  viability, T/C: 124%
[9]
  viability, T/C: 33.2%
[10]
  viability, T/C: 16%
[11]
  viability, T/C: 13.6%
[12]
  viability, T/C: 12.8%
[13]
  viability, T/C: 118%
[14]
  viability, T/C: 159%
[15]
  viability, T/C: 37.7%
[16]
  viability, T/C: 17.4%
[17]
  viability, T/C: 11.8%
[18]
  viability, T/C: 11.9%
[19]
  viability, T/C: 128%
[20]
  viability, T/C: 140%
[21]
  viability, T/C: 30%
[22]
  viability, T/C: 13.2%
[23]
  viability, T/C: 11.3%
[24]
  viability, T/C: 10.5%
[25]
  viability, T/C: 119%
[26]
  viability, T/C: 92.5%
[27]
  viability, T/C: 23.3%
[28]
  viability, T/C: 15.3%
[29]
  viability, T/C: 12.6%
[30]
  viability, T/C: 8.88%
[31]
  viability, T/C: 102%
[32]
  viability, T/C: 128%
[33]
  viability, T/C: 27.1%
[34]
  viability, T/C: 15.1%
[35]
  viability, T/C: 10.3%
[36]
  viability, T/C: 8.61%
[37]
  viability, T/C: 119%
[38]
  viability, T/C: 88.8%
[39]
  viability, T/C: 25.2%
[40]
  viability, T/C: 12.9%
[41]
  viability, T/C: 11.1%
[42]
  viability, T/C: 10.7%

## COc1ccc([C@@H](O)c2cc(-c3ncnc4cc(N5CCOCC5)ccc34)c(F)cc2Cl)nn1 + Cc1cccc(N(C)C(=O)C2C(O)CCN2c2nc(C)cc(C(F)(F)F)c2C#N)c1
[1]
  IC50: 5.34 µM
[2]
  IC50: 5.16 µM
[3]
  IC50: 4.25 µM
[4]
  IC50: 3.05 µM
[5]
  IC50: 4.18 µM
[6]
  IC50: 2.37 µM
[7]
  viability, T/C: 98.5%
[8]
  viability, T/C: 109%
[9]
  viability, T/C: 107%
[10]
  viability, T/C: 84.7%
[11]
  viability, T/C: 66.1%
[12]
  viability, T/C: 32.7%
[13]
  viability, T/C: 93.1%
[14]
  viability, T/C: 101%
[15]
  viability, T/C: 83.8%
[16]
  viability, T/C: 87.7%
[17]
  viability, T/C: 63.9%
[18]
  viability, T/C: 30.1%
[19]
  viability, T/C: 101%
[20]
  viability, T/C: 111%
[21]
  viability, T/C: 104%
[22]
  viability, T/C: 82.3%
[23]
  viability, T/C: 58.1%
[24]
  viability, T/C: 31.2%
[25]
  viability, T/C: 98.8%
[26]
  viability, T/C: 97.2%
[27]
  viability, T/C: 99.7%
[28]
  viability, T/C: 86.5%
[29]
  viability, T/C: 49%
[30]
  viability, T/C: 26.3%
[31]
  viability, T/C: 108%
[32]
  viability, T/C: 106%
[33]
  viability, T/C: 89%
[34]
  viability, T/C: 79.5%
[35]
  viability, T/C: 56.2%
[36]
  viability, T/C: 29.6%
[37]
  viability, T/C: 96.4%
[38]
  viability, T/C: 105%
[39]
  viability, T/C: 96.5%
[40]
  viability, T/C: 66.8%
[41]
  viability, T/C: 47%
[42]
  viability, T/C: 28.8%

## CNCc1ccc(-c2[nH]c3cc(F)cc4c3c2CCNC4=O)cc1
Compound 0.0316 µM
  viability, T/C: 98.8% and 101% and 112%
Compound 0.1 µM
  viability, T/C: 98.1% and 100% and 101%
Compound 0.316 µM
  viability, T/C: 114% and 108% and 99.2%
Compound 1 µM
  viability, T/C: 115% and 103% and 99.8%
Compound 3.16 µM
  viability, T/C: 105% and 88.8% and 114%
Compound 10 µM
  viability, T/C: 114% and 137% and 126%
Curve of compound
  IC50: > 10 µM
